In brackets after ≈: the same amount, converted by molar mass. Starred links: 1 amine or outer side, 2 acyl side, 3 side chain; linkers in the order of their positions; H or OH if unused. Positions of bridges follow the written chain, without caps; N, C: chain ends. Non-standard residues stand in square brackets, D forms with d. Residues, ends and D or L forms follow the SMILES beside them. X1 = N=C(NCCC[C@H](N[*:1])C(=O)[*:2])N[C@@H]1O[C@H](CO)[C@@H](O[C@H]2O[C@H](CO)[C@@H](O[C@H]3O[C@H](CO)[C@@H](O)[C@H](O)[C@H]3O)[C@H](O)[C@H]2O)[C@H](O)[C@H]1O; R8 = C=CCCCCCC[C@@](C)(N)C(=O)O; S5 = C=CCCC[C@](C)(N)C(=O)O
How the values were obtained:
[1] = system: Klebsiella pneumoniae; assay: Antimicrobial activity against Klebsiella pneumoniae ATCC 13883 assessed as growth inhibition measured after 8 hrs incubation by standard broth dilution assay; assay type: functional
[2] = system: Pseudomonas aeruginosa; assay: Antimicrobial activity against Pseudomonas aeruginosa ATCC 27853 assessed as growth inhibition measured after 8 hrs incubation by standard broth dilution assay; assay type: functional
[3] = system: Staphylococcus aureus; assay: Antimicrobial activity against methicillin-resistant Staphylococcus aureus ATCC 43300 assessed as growth inhibition measured after 8 hrs incubation by standard broth dilution assay; assay type: functional
[4] = Hemolytic activity in BALB/c mouse red blood cells assessed as hemolysis incubated for 1 hrs; assay type: toxicity, cell-based, Erythrocyte; conditions: read-out: HD50
[5] = system: Streptococcus pneumoniae; assay: Antimicrobial activity against Streptococcus pneumoniae ATCC 49619 assessed as growth inhibition measured after 8 hrs incubation by standard broth dilution assay; assay type: functional

SMILES | MIC [1] | MIC [2] | MIC [3] | HC50 at 1 h [4] | MIC [5]
CC(=O)N[C@@H](CCCCN)C(=O)N[C@@H](CCCCN)C(=O)N[C@@H](CCCNC(=N)N)C(=O)N[C@@H](CCCCN)C(=O)N[C@@H](Cc1c[nH]c2ccccc12)C(=O)N[C@@H](CCCCN)C(=O)N[C@@H](CCCNC(=N)N)C(=O)N[C@@]1(C)CCC/C=C\CCC[C@@](C)(C(=O)N[C@@H](CCCCN)C(=O)N[C@@]2(C)CCC/C=C\CCC[C@@](C)(C(=O)N[C@@H](CC(C)C)C(=O)N[C@@H](CCCCN)C(=O)N[C@@H](CCCCN)C(=O)N3CCC[C@H]3C(=O)N[C@H](C(=O)N[C@@H](CCCNC(=N)N)C(N)=O)C(C)C)NC(=O)[C@H](CCCNC(=N)N)NC(=O)[C@H](Cc3c[nH]c4ccccc34)NC(=O)[C@H](Cc3ccc(O)cc3)NC2=O)NC(=O)[C@H](CC(C)C)NC(=O)[C@H](CCCCN)NC(=O)[C@H](Cc2ccccc2)NC1=O (Ac-KKRKWKR[S5]FKL[S5]K[S5]YWR[S5]LKKPVR-NH2; staple (Z) 8-12, 14-18) | 10.1 µg/mL (≈ 3.05 µM) | 2.6 µg/mL (≈ 0.784 µM) | 2.5 µg/mL (≈ 0.754 µM) | 26.5 µg/mL | 2.4 µg/mL (≈ 0.724 µM)
CC(=O)N[C@@H](CCCCN)C(=O)N[C@@H](CCCCN)C(=O)N[C@@H](CCCNC(=N)N)C(=O)N[C@H](C(=O)N[C@@H](CCCCN)C(=O)N[C@@H](CCCCN)C(=O)N[C@@H](CCCNC(=N)N)C(=O)N[C@@]1(C)CCC/C=C\CCC[C@@](C)(C(=O)N[C@@H](CCCCN)C(=O)N[C@@]2(C)CCC/C=C\CCC[C@@](C)(C(=O)N[C@@H](CC(C)C)C(=O)N[C@@H](CCCCN)C(=O)N[C@@H](CCCCN)C(=O)N3CCC[C@H]3C(=O)N[C@H](C(=O)N[C@@H](CCCNC(=N)N)C(N)=O)C(C)C)NC(=O)[C@H](CCCNC(=N)N)NC(=O)[C@H](Cc3c[nH]c4ccccc34)NC(=O)[C@H](Cc3ccc(O)cc3)NC2=O)NC(=O)[C@H](CC(C)C)NC(=O)[C@H](CCCCN)NC(=O)[C@H](Cc2ccccc2)NC1=O)C(C)C (Ac-KKRVKKR[S5]FKL[S5]K[S5]YWR[S5]LKKPVR-NH2; staple (Z) 8-12, 14-18) | 2.5 µg/mL (≈ 0.774 µM) | 2.6 µg/mL (≈ 0.805 µM) | 2.5 µg/mL (≈ 0.774 µM) | 56.3 µg/mL | 2.4 µg/mL (≈ 0.743 µM)
CC(=O)N[C@@H](CCCCN)C(=O)N[C@@H](CCCCN)C(=O)N[C@@H](CCCNC(=N)N)C(=O)N[C@H](C(=O)N[C@@H](CCCCN)C(=O)N[C@@H](CCCCN)C(=O)N[C@@H](CCCNC(=N)N)C(=O)N[C@@]1(C)CCC/C=C\CCC[C@@](C)(C(=O)N[C@@H](CCCCN)C(=O)N[C@@]2(C)CCC/C=C\CCC[C@@](C)(C(=O)N[C@@H](CC(C)C)C(=O)N[C@@H](CCCCN)C(=O)N[C@@H](CCCCN)C(=O)N3CCC[C@H]3C(=O)N[C@H](C(=O)N[C@@H](CCCNC(=N)N[C@@H]3O[C@H](CO)[C@@H](O[C@H]4O[C@H](CO)[C@@H](O[C@H]5O[C@H](CO)[C@@H](O)[C@H](O)[C@H]5O)[C@H](O)[C@H]4O)[C@H](O)[C@H]3O)C(N)=O)C(C)C)NC(=O)[C@H](CCCNC(=N)N)NC(=O)[C@H](Cc3c[nH]c4ccccc34)NC(=O)[C@H](Cc3ccc(O)cc3)NC2=O)NC(=O)[C@H](CC(C)C)NC(=O)[C@H](CCCCN)NC(=O)[C@H](Cc2ccccc2)NC1=O)C(C)C (Ac-KKRVKKR[S5]FKL[S5]K[S5]YWR[S5]LKKPV[X1]-NH2; staple (Z) 8-12, 14-18) | 1.1 µg/mL (≈ 0.296 µM) | 2.6 µg/mL (≈ 0.7 µM) | 1.1 µg/mL (≈ 0.296 µM) | 80.8 µg/mL | 1.1 µg/mL (≈ 0.296 µM)
CC(=O)N[C@@H](CC(C)C)C(=O)N[C@@H](CCCCN)C(=O)N[C@@H](CCCNC(=N)N)C(=O)N[C@H](C(=O)N[C@@]1(C)CCC/C=C\CCC[C@@](C)(C(=O)N[C@@H](CCCCN)C(=O)N[C@@H](CC(C)C)C(=O)N[C@@H](CC(C)C)C(=O)N[C@@H](CCCCN)C(=O)N[C@@H](CCCNC(=N)N)C(=O)N[C@@H](Cc2ccc(O)cc2)C(=O)N[C@@H](Cc2c[nH]c3ccccc23)C(=O)N[C@@H](CCCNC(=N)N)C(=O)N[C@@H](CCC(N)=O)C(=O)N[C@@H](CC(C)C)C(=O)N[C@@H](CCCCN)C(=O)N[C@@H](CCCCN)C(=O)N2CCC[C@H]2C(=O)N[C@H](C(=O)N[C@@H](CCCNC(=N)N)C(N)=O)C(C)C)NC(=O)[C@H](C(C)C)NC(=O)[C@H](CCCNC(=N)N)NC(=O)[C@H](CCCCN)NC1=O)C(C)C (Ac-LKRV[S5]KRV[S5]KLLKRYWRQLKKPVR-NH2; staple (Z) 5-9) | 38 µg/mL (≈ 11.9 µM) | 2.6 µg/mL (≈ 0.817 µM) | 2.5 µg/mL (≈ 0.785 µM) |  | 37.7 µg/mL (≈ 11.8 µM)
CC(=O)N[C@@H](CC(C)C)C(=O)N[C@@H](CCCCN)C(=O)N[C@@H](CCCNC(=N)N)C(=O)N[C@]1(C)CCCCCC/C=C\CCC[C@@](C)(C(=O)N[C@@H](CC(C)C)C(=O)N[C@@H](CCCCN)C(=O)N[C@@H](CCCNC(=N)N)C(=O)N[C@@H](Cc2ccc(O)cc2)C(=O)N[C@@H](Cc2c[nH]c3ccccc23)C(=O)N[C@@H](CCCNC(=N)N)C(=O)N[C@@H](CCC(N)=O)C(=O)N[C@@H](CC(C)C)C(=O)N[C@@H](CCCCN)C(=O)N[C@@H](CCCCN)C(=O)N2CCC[C@H]2C(=O)N[C@H](C(=O)N[C@@H](CCCNC(=N)N)C(N)=O)C(C)C)NC(=O)[C@H](CCCCN)NC(=O)[C@H](Cc2ccccc2)NC(=O)[C@H](C(C)C)NC(=O)[C@H](CCCNC(=N)N)NC(=O)[C@H](CCCCN)NC(=O)[C@H](Cc2c[nH]c3ccccc23)NC1=O (Ac-LKR[R8]WKRVFK[S5]LKRYWRQLKKPVR-NH2; staple (Z) 4-11) | 38 µg/mL (≈ 11.4 µM) | 5 µg/mL (≈ 1.49 µM) | 4.9 µg/mL (≈ 1.46 µM) |  | 37.7 µg/mL (≈ 11.3 µM)
CC(=O)N[C@@H](CC(C)C)C(=O)N[C@@H](CCCCN)C(=O)N[C@@H](CCCNC(=N)N)C(=O)N[C@@]1(C)CCC/C=C\CCC[C@@](C)(C(=O)N[C@@H](Cc2ccccc2)C(=O)N[C@@H](CCCCN)C(=O)N[C@@H](CC(C)C)C(=O)N[C@@H](CC(C)C)C(=O)N[C@@H](CCCCN)C(=O)N[C@@H](CCCNC(=N)N)C(=O)N[C@@H](Cc2ccc(O)cc2)C(=O)N[C@@H](Cc2c[nH]c3ccccc23)C(=O)N[C@@H](CCCNC(=N)N)C(=O)N[C@@H](CCC(N)=O)C(=O)N[C@@H](CC(C)C)C(=O)N[C@@H](CCCCN)C(=O)N[C@@H](CCCCN)C(=O)N2CCC[C@H]2C(=O)N[C@H](C(=O)N[C@@H](CCCNC(=N)N)C(N)=O)C(C)C)NC(=O)[C@H](CCCNC(=N)N)NC(=O)[C@H](CCCCN)NC(=O)[C@H](Cc2c[nH]c3ccccc23)NC1=O (Ac-LKR[S5]WKR[S5]FKLLKRYWRQLKKPVR-NH2; staple (Z) 4-8) | 38 µg/mL (≈ 11.4 µM) | 5 µg/mL (≈ 1.51 µM) | 2.5 µg/mL (≈ 0.753 µM) |  | 37.7 µg/mL (≈ 11.4 µM)
CC(=O)N[C@@H](CC(C)C)C(=O)N[C@]1(C)CCCCCC/C=C\CCC[C@@](C)(C(=O)N[C@@H](CCCCN)C(=O)N[C@@H](CC(C)C)C(=O)N[C@@H](CC(C)C)C(=O)N[C@@H](CCCCN)C(=O)N[C@@H](CCCNC(=N)N)C(=O)N[C@@H](Cc2ccc(O)cc2)C(=O)N[C@@H](Cc2c[nH]c3ccccc23)C(=O)N[C@@H](CCCNC(=N)N)C(=O)N[C@@H](CCC(N)=O)C(=O)N[C@@H](CC(C)C)C(=O)N[C@@H](CCCCN)C(=O)N[C@@H](CCCCN)C(=O)N2CCC[C@H]2C(=O)N[C@H](C(=O)N[C@@H](CCCNC(=N)N)C(N)=O)C(C)C)NC(=O)[C@H](C(C)C)NC(=O)[C@H](CCCNC(=N)N)NC(=O)[C@H](CCCCN)NC(=O)[C@H](Cc2c[nH]c3ccccc23)NC(=O)[C@H](C(C)C)NC(=O)[C@H](CCCNC(=N)N)NC1=O (Ac-L[R8]RVWKRV[S5]KLLKRYWRQLKKPVR-NH2; staple (Z) 2-9) | 38 µg/mL (≈ 11.6 µM) | 9.8 µg/mL (≈ 2.98 µM) | 9.7 µg/mL (≈ 2.95 µM) |  | 37.7 µg/mL (≈ 11.5 µM)
CC(=O)N[C@]1(C)CCCCCC/C=C\CCC[C@@](C)(C(=O)N[C@@H](Cc2ccccc2)C(=O)N[C@@H](CCCCN)C(=O)N[C@@H](CC(C)C)C(=O)N[C@@H](CC(C)C)C(=O)N[C@@H](CCCCN)C(=O)N[C@@H](CCCNC(=N)N)C(=O)N[C@@H](Cc2ccc(O)cc2)C(=O)N[C@@H](Cc2c[nH]c3ccccc23)C(=O)N[C@@H](CCCNC(=N)N)C(=O)N[C@@H](CCC(N)=O)C(=O)N[C@@H](CC(C)C)C(=O)N[C@@H](CCCCN)C(=O)N[C@@H](CCCCN)C(=O)N2CCC[C@H]2C(=O)N[C@H](C(=O)N[C@@H](CCCNC(=N)N)C(N)=O)C(C)C)NC(=O)[C@H](CCCNC(=N)N)NC(=O)[C@H](CCCCN)NC(=O)[C@H](Cc2c[nH]c3ccccc23)NC(=O)[C@H](C(C)C)NC(=O)[C@H](CCCNC(=N)N)NC(=O)[C@H](CCCCN)NC1=O (Ac-[R8]KRVWKR[S5]FKLLKRYWRQLKKPVR-NH2; staple (Z) 1-8) | 38 µg/mL (≈ 11.4 µM) | 9.8 µg/mL (≈ 2.93 µM) | 4.9 µg/mL (≈ 1.46 µM) |  | 9.6 µg/mL (≈ 2.87 µM)
CC(=O)N[C@@]1(C)CCC/C=C\CCC[C@@](C)(C(=O)N[C@@H](CCCCN)C(=O)N[C@@H](CCCNC(=N)N)C(=O)N[C@H](C(=O)N[C@@H](Cc2ccccc2)C(=O)N[C@@H](CCCCN)C(=O)N[C@@H](CC(C)C)C(=O)N[C@@H](CC(C)C)C(=O)N[C@@H](CCCCN)C(=O)N[C@@H](CCCNC(=N)N)C(=O)N[C@@H](Cc2ccc(O)cc2)C(=O)N[C@@H](Cc2c[nH]c3ccccc23)C(=O)N[C@@H](CCCNC(=N)N)C(=O)N[C@@H](CCC(N)=O)C(=O)N[C@@H](CC(C)C)C(=O)N[C@@H](CCCCN)C(=O)N[C@@H](CCCCN)C(=O)N2CCC[C@H]2C(=O)N[C@H](C(=O)N[C@@H](CCCNC(=N)N)C(N)=O)C(C)C)C(C)C)NC(=O)[C@H](C(C)C)NC(=O)[C@H](CCCNC(=N)N)NC(=O)[C@H](CCCCN)NC1=O (Ac-[S5]KRV[S5]KRVFKLLKRYWRQLKKPVR-NH2; staple (Z) 1-5) | 38 µg/mL (≈ 11.8 µM) | 2.6 µg/mL (≈ 0.808 µM) | 2.5 µg/mL (≈ 0.777 µM) |  | 37.7 µg/mL (≈ 11.7 µM)

From ChEMBL document CHEMBL6153110, “Peptide Double-Stapling and Arginine N-Glycosylation Triggered the Development of Therapeutic Antimicrobial Peptides Capable of Killing Drug-Resistant Bacteria in Mice” (J Med Chem, 2025)
